Results as given in patent US4193997A, “Thieno[2,3-c] and [3,2-c]pyridines, process for their preparation and therapeutic applications thereof” (Parcor, priority 1977, dated 1980).

What was measured:
[1] = test system: carrageenin-induced edema; test: Localized carrageenin-induced edema method; assay type: in vivo; details: rats, 100 mg/kg oral one hour before, with, and 1 and 2.5 hours after carrageenin
Method: 0.1 ml of a 1% carrageenin solution is injected at time O in the metatarsal flexor muscles of the right hind limb of rats.
The animals of the treated group are additionally orally administered 100 mg/kg of the test derivative, respectively one hour prior to, and then simultaneously with the phlogogenic agent, and then one hour and 2.5 hours thereafter. The determinations effected with a ROCH micrometer at times 0, 1 hr, 2 hrs, 3 hrs and 5 hrs after carrageenin administration make it possible to determine the percent anti-inflammatory activity, as a function of time.

[2] = test system: A.D.P.-induced blood-platelet aggregation; test: A.D.P.-induced blood-platelet aggregation after oral treatment of rats; assay type: in vivo, Wistar rats; details: Rattus norvegicus, 100 mg/kg oral, 3 hrs after treatment, 10 μM A.D.P. solution, read-out: Percent inhibition of blood-platelet aggregation, A.D.P.
Method: (§1) Blood is taken from the jugular vein of Wistar rats. From this citrated blood, and after centrifugation, a plasma containing 600,000±20,000 blood-platelets per mm 3 is reconstituted, which plasma is used in all aggregation determinations.
(§2) 0.4 ml plasma is placed in a siliconized tube provided with a magnet bar which is also siliconized. The tube is introduced into an aggregometer connected to an apparatus which records the optical density variations. When light transmission reaches a stable value, 0.5 ml of a solution containing 10 μM A.D.P. (adenosine diphosphate) is introduced into the tube.
Blood-platelet aggregation then induces an increase of light transmission, followed by a decrease subsequent to the disaggregation stage.
The maximal optical density variation thus determined characterizes the extent of the aggregation.
(§3) Different groups of 20 rats each are used. Each group is orally administered a test derivative, at a dosage of 100 mg/kg. The results obtained during both tests are reported in following Table I which indicates the percent inhibition of blood-platelet aggregation obtained with respect to the reference group, 3 hrs after treatment.

[3] = test system: mice; test: Antalgic action, acetic acid method according to Koster, Anderson & de Beer; assay type: in vivo; details: 100 mg/kg oral, 30 minutes prior to i.p. acetic acid
Text: (b) Acetic acid method, according to Koster, Anderson & de Beer (Fed. Proced., 18, 1959, 412, 1, 626)
Intraperitoneal injection of a dilute acetic acid solution induces, in mice, characteristic writhing movements which are repeated due to the effect of pain.

[4] = test system: ovalbumin-induced systemic edema; test: Ovalbumin-induced systemic edema method; assay type: in vivo; details: rats, 100 mg/kg oral one hour before and with ovalbumin
Method: Rats are administered a simultaneous intraperitoneal injection of 1 ml ovalbumin and 0.5 ml of a 1% aqueous Evans Blue solution. The animals of the treated group are additionally orally administered 100 mg/kg of the test derivative, one hour prior to ovalbumin administration and then simultaneously with said ovalbumin administration. The intensity of the phenomenon thus induced is rated according to a scale from 1 to 5, according to the progress of the inflammatory syndrome. The determinations are effected after 2 hours and after 3 hours. Thus are determined the mean intensity of the edema and the percent decrease of the edema reaction.

[5] = test system: Red blood cells; test: Anti-sludge in vitro, "preventive" treatment (protamine sulfate agglomeration of red blood cells); assay type: cell-based, rats; details: for percent agglomerates formed by 5 RBC: controls 6 or 8; for percent agglomerates formed by 4 RBC: controls 9 or 8; for percent agglomerates formed by 3 RBC: controls 13 or 14; for percent agglomerates formed by 2 RBC: controls 17 or 16; for percent free red blood cells (size 1): controls 32 (n°3, 4, 6) or 30 (n°11, 12, 17)
Method: (§4) Red blood cells of rats are washed three times and diluted to 1/250 concentration in physiological saline. In each of 5 tubes are placed 0.6 ml of this suspension and 0.2 ml physiological saline. Into each tube is then added, respectively, an amount of 0, 25, 50, 100 and 200 μg of the test derivative contained in 0.2 ml of solution. After incubation for one hour at 37° C., 0.2 ml of a solution containing 125 μg/ml protamine sulfate is added thereto, and the resulting material is further incubated for 0.5 hour at 37° C. The red blood cells of each tube are then examined with a Mallasez cell, and the percent free red blood cells (RBC) and the percent agglomerates formed by 2, 3, 4, 5 . . . RBC are noted.

[6] = test system: mouse; test: Antalgic action, mechanical stimulation method according to Haffner; assay type: in vivo; details: 100 mg/kg oral
Method: (a) Mechanical stimulation method according to Haffner (Deutsch. Wish., 1959, 55, 731-733). This method comprises placing a pressure forceps at the base of the tail of a mouse and recording the number of bites self-inflicted by the animal in its endeavour to remove the forceps. The decrease of the number of bites prior and subsequent to oral administration of the test compound at a dosage of 100 mg/kg provides a measure of the antalgic activity of the derivatives of this invention.

[7] = test system: collagen-induced blood-platelet aggregation; test: Collagen-induced blood-platelet aggregation after oral treatment of rats; assay type: in vivo, Wistar rats; details: Rattus norvegicus, 100 mg/kg oral, 3 hrs after treatment, collagen (bovine tendon extract), read-out: Percent inhibition of blood-platelet aggregation, Collagen
Method: as §1, §2
The A.D.P. solution is substituted with a collagen solution (bovine tendon extract).
as §3

[8] = test system: Red blood cells; test: Anti-sludge in vitro, "curative" procedure (protamine sulfate agglomeration of red blood cells); assay type: cell-based, rats; details: 25 μg; for percent aggregates, size of agglomerates 5: reference tests 8 or 9; for percent aggregates, size of agglomerates 4: reference tests 11; for percent aggregates, size of agglomerates 3: reference tests 15 or 16; for percent aggregates, size of agglomerates 2: reference tests 19; for percent aggregates, size of agglomerates 1: reference tests 33 (n°3, 4, 6) or 30 (n°11, 12, 17)
Method: as §4
The test was repeated according to a "curative" procedure. The red blood cells were first contacted with the protamine sulfate and, after incubation for 0.5 hour, 0.2 ml containing 25 μg of the test derivative were added thereto, after which the material was further incubated for one hour at 37° C.

Compound	Percent anti-inflammatory activity after 1 hour [1]	Percent anti-inflammatory activity after 2 hours [1]	Percent anti-inflammatory activity After 3 hours [1]	inhibition at 100 mg/kg [2]	percent antalgia [3]	Percent decrease of the edema reaction After 2 hours [4]	Percent decrease of the edema reaction After 3 hours [4]	percent agglomerates formed by 5 RBC ([5]; 25 μg per tube)	percent agglomerates formed by 4 RBC ([5]; 25 μg per tube)	percent agglomerates formed by 3 RBC ([5]; 25 μg per tube)	percent agglomerates formed by 2 RBC ([5]; 25 μg per tube)	percent free red blood cells (size 1) ([5]; 25 μg per tube)	percent agglomerates formed by 5 RBC ([5]; 50 μg per tube)	percent agglomerates formed by 4 RBC ([5]; 50 μg per tube)	percent agglomerates formed by 3 RBC ([5]; 50 μg per tube)	percent agglomerates formed by 2 RBC ([5]; 50 μg per tube)	percent free red blood cells (size 1) ([5]; 50 μg per tube)	percent agglomerates formed by 4 RBC ([5]; 100 μg per tube)	percent agglomerates formed by 3 RBC ([5]; 100 μg per tube)	percent agglomerates formed by 2 RBC ([5]; 100 μg per tube)	further results
CC(=O)N1CC(c2ccccc2)c2ccsc2C1=O (stereo not drawn) [Derivative n°17, 4-Phenyl-6-acetyl-7-oxo-4,5,6,7-tetrahydro-thieno[2,3-c]-pyridine]	37%	49%	54%	61.3%	68%	46%	58%	3%	3%	13%	23%	58%	1%	2%	4%	28%	65%	1%	4%	14%	percent agglomerates formed by 5 RBC ([5]; 100 μg per tube): 1%; percent free red blood cells (size 1) ([5]; 100 μg per tube): 80%; percent agglomerates formed by 4 RBC ([5]; 200 μg per tube): 1%; percent agglomerates formed by 3 RBC ([5]; 200 μg per tube): 2%; percent agglomerates formed by 2 RBC ([5]; 200 μg per tube): 9%; percent free red blood cells (size 1) ([5]; 200 μg per tube): 88%; mean percent antalgia after 30 min. [6]: 70%; mean percent antalgia after 1 hr [6]: 65%; mean percent antalgia after 2 hrs [6]: 60%; mean percent antalgia after 3 hrs [6]: 55%; inhibition at 100 mg/kg [7]: 91.7%; percent aggregates, size of agglomerates 5 [8]: 1%; percent aggregates, size of agglomerates 4 [8]: 1%; percent aggregates, size of agglomerates 3 [8]: 2%; percent aggregates, size of agglomerates 2 [8]: 16%; percent aggregates, size of agglomerates 1 [8]: 80%
O=C1NCCc2ccsc21 [Derivative n°12, 7-Oxo-4,5,6,7-tetrahydro-thieno[2,3-c]pyridine]	42%	54%	61%	62.7%	77%	53%	64%	1%	2%	15%	21%	61%	2%	2%	12%	20%	64%	2%	2%	18%	percent free red blood cells (size 1) ([5]; 100 μg per tube): 78%; percent agglomerates formed by 4 RBC ([5]; 200 μg per tube): 1%; percent agglomerates formed by 3 RBC ([5]; 200 μg per tube): 1%; percent agglomerates formed by 2 RBC ([5]; 200 μg per tube): 9%; percent free red blood cells (size 1) ([5]; 200 μg per tube): 89%; mean percent antalgia after 30 min. [6]: 81%; mean percent antalgia after 1 hr [6]: 78%; mean percent antalgia after 2 hrs [6]: 73%; mean percent antalgia after 3 hrs [6]: 67%; inhibition at 100 mg/kg [7]: 90.6%; percent aggregates, size of agglomerates 4 [8]: 1%; percent aggregates, size of agglomerates 3 [8]: 3%; percent aggregates, size of agglomerates 2 [8]: 14%; percent aggregates, size of agglomerates 1 [8]: 82%
CC(=O)N1CCc2ccsc2C1=O [Derivative n°11, 6-Acetyl-7-oxo-4,5,6,7-tetrahydro-thieno[2,3-c]-pyridine]	41%	50%	58%	63%	71%	45%	55%	2%	2%	14%	22%	60%	1%	2%	10%	22%	65%	1%	5%	13%	percent free red blood cells (size 1) ([5]; 100 μg per tube): 81%; percent agglomerates formed by 4 RBC ([5]; 200 μg per tube): 1%; percent agglomerates formed by 3 RBC ([5]; 200 μg per tube): 2%; percent agglomerates formed by 2 RBC ([5]; 200 μg per tube): 14%; percent free red blood cells (size 1) ([5]; 200 μg per tube): 83%; mean percent antalgia after 30 min. [6]: 65%; mean percent antalgia after 1 hr [6]: 61%; mean percent antalgia after 2 hrs [6]: 57%; mean percent antalgia after 3 hrs [6]: 50%; inhibition at 100 mg/kg [7]: 92.8%; percent aggregates, size of agglomerates 5 [8]: 1%; percent aggregates, size of agglomerates 4 [8]: 2%; percent aggregates, size of agglomerates 3 [8]: 4%; percent aggregates, size of agglomerates 2 [8]: 15%; percent aggregates, size of agglomerates 1 [8]: 78%
